Tests used:
Test in all cases: relative viability (nuclei count vs DMSO), 5 days (fraction); higher = more cells survive
[1] = compound: CN(C)C(=N)NC(=N)N [Metformin] + O=C(c1cc(Cc2n[nH]c(=O)c3ccccc23)ccc1F)N1CCN(C(=O)C2CC2)CC1 [Olaparib] (partner 8 µM)
In short: (§1)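 Nuclei were stained with Hoechst during a one-step fixation (final 0.05% Triton X-100, 1% formaldehyde, 1 ug/ml Hoechst) carried out 5 days after dosing, then counted on 4× images. The cells, lung cancer lines in 1536-well plates, had been dosed by pin tool the day after seeding with one drug alone or a fixed anchor-drug dose plus five library-drug doses (not always all listed) in √10 steps. Relative viability is the nuclei count in treated wells divided by that in vehicle wells, and each value is the median of duplicate plates.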

[2] = compound: N#CC1(c2ccc(NC(=O)c3cccnc3NCc3ccncc3)cc2)CCCC1 [Apatinib] + Cc1cc(Nc2cc(N3CCN(C)CC3)nc(Sc3ccc(NC(=O)C4CC4)cc3)n2)n[nH]1 [Tozasertib] (partner 0.1 µM)
In short: as §1

[3] = compound: N#CC1(c2ccc(NC(=O)c3cccnc3NCc3ccncc3)cc2)CCCC1 [Apatinib] + Nc1ncn([C@H]2C[C@H](O)[C@@H](CO)O2)c(=O)n1 [Decitabine] (partner 2 µM)
In short: as §1

[4] = compound: CN(C)C(=N)NC(=N)N [Metformin] + CS(=O)(=O)CCNCc1ccc(-c2ccc3ncnc(Nc4ccc(OCc5cccc(F)c5)c(Cl)c4)c3c2)o1 [Lapatinib] (partner 2 µM)
In short: as §1

Cell Line	relative viability ([1]; first compound 10 µM)	relative viability ([1]; first compound 31.62 µM)	relative viability ([1]; first compound 100 µM)	relative viability ([1]; first compound 316.23 µM)	relative viability ([1]; first compound 1000 µM)	relative viability ([2]; first compound 0.08 µM)	relative viability ([2]; first compound 0.253 µM)	relative viability ([2]; first compound 0.8 µM)	relative viability ([2]; first compound 2.53 µM)	relative viability ([2]; first compound 8 µM)	relative viability ([3]; first compound 0.08 µM)	relative viability ([3]; first compound 0.253 µM)	relative viability ([3]; first compound 0.8 µM)	relative viability ([3]; first compound 2.53 µM)	relative viability ([3]; first compound 8 µM)	relative viability ([4]; first compound 10 µM)	relative viability ([4]; first compound 31.62 µM)	relative viability ([4]; first compound 100 µM)	relative viability ([4]; first compound 316.23 µM)	relative viability ([4]; first compound 1000 µM)
RERF-LC-KJ	0.651	0.715	0.757	0.625	0.63	0.538	0.428	0.393	0.326	0.293	0.755	0.7	0.637	0.66	0.746	0.685	0.777	0.777	0.775	0.915
NCI-H647	0.375	0.394	0.415	0.44	0.375	0.288	0.503	0.19	0.144	0.206	0.376	0.413	0.478	0.414	0.583	1.04	1.14	0.933	1.04	1.1
NCI-H1395	0.386	0.428	0.455	0.42	0.417	0.734	0.832	0.722	0.661	0.52	0.747	0.808	0.781	0.744	0.859	1.11	1.25	1.36	0.963	0.576
NCI-H522	0.721	0.752	0.745	0.652	0.698	0.48	0.487	0.693	0.504	0.567	0.685	0.63	0.749	0.606	0.672	–	–	–	–	–
NCI-H322M	0.686	0.695	0.739	0.672	0.654	0.454	0.426	0.437	0.441	0.503	0.75	0.709	0.64	0.833	0.783	0.589	0.598	0.688	0.614	0.585
H3255	0.487	0.594	0.523	0.441	0.402	0.775	0.697	0.795	0.521	0.435	0.707	0.553	0.578	0.542	0.517	0.254	0.227	0.291	0.29	0.211
201T	–	0.802	0.815	0.775	0.822	0.96	0.878	0.897	0.808	0.615	0.863	0.895	0.842	0.85	0.781	–	1.08	1.07	0.989	1
SW 1573	0.441	0.468	0.471	0.381	0.352	0.165	0.196	0.193	0.185	0.183	0.77	0.615	0.593	0.513	0.603	1.1	1.09	1.09	1.03	1.18
NCI-H2170	0.45	0.468	0.536	0.487	0.491	0.86	0.879	0.677	0.652	0.51	0.476	0.494	0.461	0.518	0.508	0.273	0.247	0.302	0.288	0.288
NCI-H1993	1.01	1.02	1.12	0.882	0.955	0.637	0.619	0.605	0.583	0.595	0.604	0.623	0.519	0.559	0.544	0.761	0.823	0.814	0.741	0.804
NCI-H1755	0.735	0.774	0.79	0.716	0.829	0.64	0.542	0.529	0.506	0.447	0.712	0.701	0.644	0.91	0.837	0.763	0.956	1.02	0.929	0.99
NCI-H1437	0.579	0.59	0.593	0.595	0.576	0.453	0.461	0.393	0.333	0.281	0.583	0.584	0.524	0.505	0.46	0.868	0.887	0.619	0.712	0.808
EPLC-272H	0.748	0.769	1.01	0.922	0.877	0.28	–	0.248	0.18	0.144	0.395	0.324	0.405	0.307	0.342	1.22	1.09	1.09	1.15	1.05
LK-2	0.79	0.509	0.644	0.734	0.873	0.159	0.195	0.183	0.152	0.175	0.299	0.298	0.273	0.21	0.273	1.22	1.19	1.23	0.878	0.697
NCI-H1975	0.653	0.931	0.874	0.849	0.955	0.864	0.691	0.253	0.157	0.157	0.406	0.372	0.413	0.381	0.466	0.98	1.27	0.935	1.05	1.06
HARA	0.989	0.81	0.701	0.762	1.01	0.119	0.129	0.121	0.0894	0.0993	0.676	0.538	0.438	–	0.671	1	1	1.14	1	0.957
NCI-H1299	0.867	0.924	0.941	0.873	0.933	–	–	–	–	–	–	–	–	–	–	0.973	1.03	1.04	1.01	0.999

Cell Line	relative viability ([1]; first compound 10 µM)	relative viability ([1]; first compound 31.62 µM)	relative viability ([1]; first compound 100 µM)	relative viability ([1]; first compound 316.23 µM)	relative viability ([1]; first compound 1000 µM)	relative viability ([2]; first compound 0.08 µM)	relative viability ([2]; first compound 0.253 µM)	relative viability ([2]; first compound 0.8 µM)	relative viability ([2]; first compound 2.53 µM)	relative viability ([2]; first compound 8 µM)	relative viability ([3]; first compound 0.08 µM)	relative viability ([3]; first compound 0.253 µM)	relative viability ([3]; first compound 0.8 µM)	relative viability ([3]; first compound 2.53 µM)	relative viability ([3]; first compound 8 µM)	relative viability ([4]; first compound 10 µM)	relative viability ([4]; first compound 31.62 µM)	relative viability ([4]; first compound 100 µM)	relative viability ([4]; first compound 316.23 µM)	relative viability ([4]; first compound 1000 µM)
NCI-H2228	0.399	0.344	0.483	0.802	0.578	0.268	0.221	0.225	0.164	0.0952	–	–	–	–	–	1.46	1.25	–	0.974	1.24
ChaGo-K-1	0.341	0.343	0.319	0.26	0.33	0.194	0.227	0.193	0.208	0.178	0.536	0.56	0.522	0.53	0.43	–	–	–	–	–
A549	0.281	0.308	0.324	0.269	0.368	–	–	–	–	–	0.257	0.264	0.247	0.344	0.448	0.946	0.934	0.909	0.722	0.923
NCI-H1648	–	1.14	0.502	1.07	1.04	0.484	0.346	0.563	0.366	0.197	0.66	0.502	0.479	0.428	0.508	–	–	–	–	–
CAL-12T	0.612	0.661	0.61	0.611	0.744	0.298	0.34	0.241	0.198	0.191	–	–	–	–	–	0.645	0.801	0.794	0.618	0.736
SW 900	0.853	0.945	–	0.892	0.917	0.504	0.54	0.442	0.323	0.2	0.417	0.479	0.447	0.562	0.652	–	–	–	–	–
NCI-H1792	0.463	0.39	0.498	0.358	0.402	–	–	–	–	–	0.596	0.55	0.544	0.591	0.609	–	0.87	1.03	0.795	0.864
LCLC-103H	0.727	0.713	0.76	0.737	0.777	0.443	0.491	0.429	0.42	0.357	0.792	0.739	0.687	0.726	0.744	–	–	–	–	–
NCI-H1623	–	–	–	–	–	0.45	0.454	0.451	0.417	0.407	–	–	–	–	–	–	–	–	–	–
NCI-H2342	–	0.375	0.372	0.418	0.358	0.527	0.492	0.53	0.455	0.373	0.704	0.767	0.709	0.799	0.791	–	–	–	–	–
NCI-H1703	0.501	0.71	0.875	0.506	0.521	–	–	–	–	–	–	–	–	–	–	1.71	1.46	1.15	1.05	1.05
Calu-6	0.459	0.416	0.421	0.48	0.467	–	–	–	–	–	–	–	–	–	–	0.864	1.03	0.979	0.913	1.03
EBC-1	0.68	0.733	0.73	0.728	0.721	–	–	–	–	–	–	–	–	–	–	0.182	0.181	0.23	0.281	0.248
IA-LM	0.864	0.94	0.85	0.658	0.917	–	–	–	–	–	–	–	–	–	–	1.13	0.944	–	0.886	1.21
NCI-H1563	–	–	–	–	–	–	–	–	–	–	–	–	–	–	–	0.999	0.912	1.02	0.924	0.783
NCI-H441	–	0.575	0.387	0.356	0.374	0.672	0.569	0.538	0.533	0.428	0.229	0.233	0.248	0.285	0.444	–	–	–	–	–
